Legend:
[1] = relative permittivity at various frequencies (dimensionless); xn = mol fraction of the nth substance listed; settings: 99 kPa, Liquid, Frequency=2 MHz, Parallel plate capacitor
[2] = refractive index (Na D-line) (dimensionless); xn = mol fraction of the nth substance listed; settings: 99 kPa, Liquid, Abbe refractometer

CCCCCl [1-chlorobutane] + CCCCCC
Settings | refractive index, 283.15 K | refractive index, 298.15 K | refractive index, 313.15 K | relative permittivity, 283.15 K | relative permittivity, 298.15 K | relative permittivity, 313.15 K
[1], x2 = 0 | – | – | – | 7.552 | 7.157 | 6.757
[1], x2 = 0.0476 | – | – | – | 7.176 | 6.821 | 6.456
[1], x2 = 0.0989 | – | – | – | 6.775 | 6.461 | 6.13
[1], x2 = 0.1968 | – | – | – | 6.057 | 5.8 | 5.526
[1], x2 = 0.3016 | – | – | – | 5.335 | 5.13 | 4.901
[1], x2 = 0.3968 | – | – | – | 4.722 | 4.553 | 4.37
[1], x2 = 0.5024 | – | – | – | 4.101 | 3.968 | 3.824
[1], x2 = 0.6034 | – | – | – | 3.567 | 3.458 | 3.348
[1], x2 = 0.6982 | – | – | – | 3.11 | 3.027 | 2.94
[1], x2 = 0.808 | – | – | – | 2.63 | 2.567 | 2.506
[1], x2 = 0.9029 | – | – | – | 2.259 | 2.217 | 2.176
[1], x2 = 0.9447 | – | – | – | 2.103 | 2.07 | 2.04
[2], x2 = 0 | 1.4075 | 1.3995 | 1.39131 | – | – | –
[2], x2 = 0.0534 | 1.40565 | 1.39762 | 1.38941 | – | – | –
[2], x2 = 0.1022 | 1.404 | 1.39595 | 1.38772 | – | – | –
[2], x2 = 0.2056 | 1.40063 | 1.39253 | 1.38428 | – | – | –
[2], x2 = 0.3039 | 1.39755 | 1.38941 | 1.38115 | – | – | –
[2], x2 = 0.3985 | 1.39477 | 1.38661 | 1.37832 | – | – | –
[2], x2 = 0.5023 | 1.39187 | 1.38367 | 1.37537 | – | – | –
[2], x2 = 0.6042 | 1.38921 | 1.38099 | 1.37267 | – | – | –
[2], x2 = 0.7026 | 1.38679 | 1.37855 | 1.37024 | – | – | –
[2], x2 = 0.8041 | 1.38445 | 1.37621 | 1.36788 | – | – | –
[2], x2 = 0.9082 | 1.38227 | 1.37401 | 1.3657 | – | – | –
[2], x2 = 0.9471 | 1.3815 | 1.37324 | 1.36493 | – | – | –
